{"source": "patent EP0847397B1", "about": "“WATER-SOLUBLE C-RING ANALOGUES OF 20 (S)-CAMPTOTHECIN” (DR. REDDY'S RESEARCH FOUNDATION, priority 1996, dated 1997)", "key": {"[1]": {"conditions": "result in words, compared with 20(S)-camptothecin; cited from earlier work"}, "Pharmacokinetics at MTD": {"test": "Pharmacokinetics at MTD", "assay_type": "in vivo, Swiss albino mice", "conditions": "mouse, ip, intraperitoneal, plasma", "description": "3. Pharmacokinetics at MTD:\nAll studies were carried out in Swiss albino mice in the weight range 35-40 g. The animals were fasted overnight prior to dosage of the drug and were fed 3 hours after dosing. The animals were dosed intraperitonially as a solution in DMSO:water (50:50; v/v). Blood samples were drawn from orbital sinus at 1, 2, 4, 6 and 8 hours after administration of the dose into heparinized tubes, centrifuged at 13000 RPM for 10 min. Plasma samples were separated and analyzed by HPLC. To 50 µl of the sample, 100 µl of chilled acidified methanol was added and mixed to precipitate proteins. The sample was centrifuged at 13,000 RPM for 10 min. 100 µl of supernatant was made up to 200 µl with methanol:water (50:50; v/v) and 100 µl was injected on HPLC. Peak area of the drug was used for quantification. Calibration, control and recovery samples were prepared by spiking 50 µl of blank plasma with known amounts of the drug and processed in the same manner as the samples. (J. Natl. Cancer Inst., 1996; 88:817-824)."}, "[2]": {"tested_on": "NCI's 60 human tumor cell line assay", "test": "cells", "assay_type": "cell-based", "conditions": "60 cell, 48 h, read-out: IC50 (mean GI50 against NCI's 60 human tumor cell line assay)", "experimental": "(§3) Each test compound was screened against a battery of 60 human cell lines obtained from eight organs. In a typical procedure, the cell suspensions that were diluted according to the particular cell type and the expected target cell density (5000-40,000 cells per well based on cell growth characteristics) were added into 96-well microtiter plates. Inoculates were allowed a preincubation period of 24h at 37°C. for stabilization. Dilutions at twice the intended test concentrations were added at time zero in 100-µl aliquots to microtiter plate wells. Usually test compounds were evaluated at five 10-fold dilutions. The highest well concentration used in the test is 10^-4M. The cells are then incubated in the presence of drug (the test compound) for further 48h in 5% CO2 atmosphere and 100% humidity. At the end of this time, the adherent cells are fixed to the plate by means of trichloroacetic acid, and after a number of washes, the cell layer is treated with the protein stain Sulforhodamine B. The optical density which is proportional to protein mass, is then read by automated spectrophotometric plate readers at a wavelength of 515 nm. Readings are transferred to a microcomputer and final reports are generated using especially developed software."}, "[3]": {"test": "Solubility by HPLC method", "assay_type": "physicochemical", "conditions": "aqueous buffer, 0.1M sodium acetate buffer pH 5.0, 24 hours, room temperature", "description": "4. Solubility by HPLC method:\nExcess of compound was soaked in 0.5 ml of 0.1M sodium acetate buffer at pH 5.0 for 24 hours at room temperature. The solution was filtered through 0.45 micron PVDF syringe filter (Gelman Sciences). The filtrate was injected into HPLC at different volumes (10 & 20 µl). Chromatograms were recorded. Responses recorded were extrapolated from the calibration curve and the solubility of the compound was calculated. (J. Med. Chem., 1995; 38: 400)"}, "[4]": {"test": "Solubility by routine method", "assay_type": "physicochemical", "conditions": "deionized water, 37°C", "description": "5. Solubility by routine method:\nCompound was suspended in 5 ml of deionized water and heated to 37°C. for 10 min. Then, the solution was filtered and the filtrate was evaporated to drying using methanol and the solid residue was weighed."}, "[5]": {"test": "MTD in Swiss albino mice (single dose)", "conditions": "mouse, in vivo, 14 days observation", "description": "1. MTD in Swiss albino mice:\nEach Swiss Albino mouse is injected with a single does of the test compound on a day designated as Day 1: Doses that were tested are 400, 200, 100, 50, 25, 12.5, 8.3, 6.25 and 3.13 mg/kg body weight. […] (As per the protocol followed by the U.S. National Cancer Institute)"}, "SF-268": {"tested_on": "SF-268", "test": "In vitro activity after 1 hour exposure (Sulforhodamine B)", "assay_type": "cell-based", "conditions": "Homo sapiens", "description": "(§1) 6. In vitro activity after 1 hour exposure:\n(§2) Grow the cells in 15 ml of Complete Medium (RPM1-1640 with 10% Fetal bovine serum and 0.2% NaHCO3) for 3-5 days to obtain a cell number of 10^6 cells/flask. The medium is removed and the attached cells are washed with Phosphate Buffered Saline (PBS). 1 ml of 0.1% Trypsin-EDTA is added and incubated for 5 min at 37°C. Tap the flasks gently and add 5 ml of complete medium. Remove cell suspension and centrifuge at 2000 rpm for 5 min. Discard the supernatant and suspend the pellet in 5 ml of complete medium. Count the cell number in a haemocytometer. Dilute the cell suspension to 10,000 cells/100 µl in complete medium. Plate out 100 µl of cell suspension in each of 96 well microtitre plate and incubate for 24 hrs at 37°C. and 5% CO2. Terminate the reference blank (plated out separately) with 25 µl of 50% cold Trichloroacetic acid (TCA). Incubate for 1 hour at 4°C. Wash the plate (five times) with deionized water. Air dry and preserve the plate at 4°C. for determination of T0 value. Prepare suitable dilution of the test compound in complete medium and add 100 µl to each well to maintain the final concentration ranging between 10^-4M and 10^-8M. Incubate for 1 hr at 37°C. and 5% CO2. Centrifuge the microtitre plate at 1000 rpm for 5 min. Remove the supernatant. Wash the cells twice with 100 µl of PBS to remove the traces of test compound. Add 200 µl of complete medium to each well and incubate for 48 hours at 37°C. and 5% CO2. Terminate the cell growth with the addition of 50 µl of 50% cold TCA. Incubate the plate for 1 hr at 4°C. Wash the plates with deionized water (five times) and air dry. Add 100 µl of Sulforhodamine B solution (0.4% in 1% acetic acid) to each well. Keep at room temperature for 15 minutes. Wash (five times) with 1% acetic acid and air dry. Add 100 µl of 10mM Trizma base (Sigma), shake gently on plate shaker for 15 minutes and read the optical density at 490 nm in Spectrophotometric plate reader. (as per the protocol followed by the U.S. National Cancer Institute."}, "ACHN": {"tested_on": "ACHN", "test": "In vitro activity after 1 hour exposure (Sulforhodamine B)", "assay_type": "cell-based", "conditions": "Homo sapiens, 1 hour exposure then 48 hours drug-free", "description": "as §1, §2"}, "MCF-7/ADR": {"tested_on": "MCF-7/ADR", "test": "In vitro activity after 1 hour exposure (Sulforhodamine B)", "assay_type": "cell-based", "conditions": "Homo sapiens, NCI/ADR-RES, 1 hour exposure then 48 hours drug-free", "description": "as §1, §2"}, "OVCAR-8": {"tested_on": "OVCAR-8", "test": "In vitro activity after 1 hour exposure (Sulforhodamine B)", "assay_type": "cell-based", "conditions": "Homo sapiens; OVCAR-8, 1 hour exposure then 48 hours drug-free", "description": "as §1, §2"}, "DU-145": {"tested_on": "DU-145", "test": "In vitro activity after 1 hour exposure (Sulforhodamine B)", "assay_type": "cell-based", "conditions": "Homo sapiens; DU-145, 1 hour exposure then 48 hours drug-free", "description": "as §1, §2"}, "UACC-62": {"tested_on": "UACC-62", "test": "In vitro activity after 1 hour exposure (Sulforhodamine B)", "assay_type": "cell-based", "conditions": "Homo sapiens; UACC-62, 1 hour exposure then 48 hours drug-free", "description": "as §1, §2"}, "HOP-62": {"tested_on": "HOP-62", "test": "In vitro activity after 1 hour exposure (Sulforhodamine B)", "assay_type": "cell-based", "conditions": "Homo sapiens; HOP-62, 1 hour exposure then 48 hours drug-free", "description": "as §1, §2"}, "MOLT 4": {"tested_on": "MOLT 4", "test": "NCI in vitro 60 human tumor cell line assay", "assay_type": "cell-based", "conditions": "MOLT-4, 48 h, read-out: Total Growth Inhibition (TGI)", "experimental": "as §3"}, "SF 295": {"tested_on": "SF 295", "test": "NCI in vitro 60 human tumor cell line assay", "assay_type": "cell-based", "conditions": "SF-295, 48 h, read-out: Total Growth Inhibition (TGI)", "experimental": "as §3"}, "HT 29": {"tested_on": "HT 29", "test": "NCI in vitro 60 human tumor cell line assay", "assay_type": "cell-based", "conditions": "Homo sapiens, HT-29, 48 h, read-out: Total Growth Inhibition (TGI)"}, "MCF 7": {"tested_on": "MCF 7", "test": "NCI in vitro 60 human tumor cell line assay", "assay_type": "cell-based", "conditions": "MCF7, 48 h, read-out: Total Growth Inhibition (TGI)", "experimental": "as §3"}, "U 251": {"tested_on": "U 251", "test": "NCI in vitro 60 human tumor cell line assay", "assay_type": "cell-based", "conditions": "U-251, 48 h, read-out: Total Growth Inhibition (TGI)", "experimental": "as §3"}}}
{"compound": "5-hydroxymethyl camptothecin", "values": [{"measurement": "anti-tumor activity", "setting": "[1]", "value": "reduced anti-tumor activity"}]}
{"compound": "CCOC1c2cc3c(O)cccc3nc2-c2cc3c(c(=O)n21)COC(=O)[C@]3(O)CC", "note": "(stereo partly drawn) [Example 11, 5-Ethoxy-9-hydroxycamptothecin]", "values": [{"measurement": "AUC(0-t)", "setting": "Pharmacokinetics at MTD; DMSO:water (50:50), read-out: AUC0-1", "value": "18.5 ± 2.1", "unit": "µM·h"}, {"measurement": "Cmax", "setting": "Pharmacokinetics at MTD", "value": "6.95 ± 1.2", "unit": "µM"}, {"measurement": "Tmax", "setting": "Pharmacokinetics at MTD", "value": 1, "unit": "h"}, {"measurement": "half-life", "setting": "Pharmacokinetics at MTD", "value": "1.92 ± 0.4", "unit": "h"}, {"measurement": "k el", "setting": "Pharmacokinetics at MTD", "value": 0.000103, "unit": "s⁻¹"}, {"measurement": "mean GI50", "setting": "[2]", "value": 6.68, "unit": "µM"}, {"measurement": "solubility at 24 h", "setting": "[3]", "value": 170, "unit": "µg/mL"}, {"measurement": "solubility at 10 min", "setting": "[4]", "value": "< 1000", "unit": "µg/mL"}, {"measurement": "MTD at 336 h", "setting": "[5]; intravenous", "value": 100, "unit": "mg/kg"}, {"measurement": "MTD at 336 h", "setting": "[5]; ip, intraperitoneal", "value": 400, "unit": "mg/kg"}, {"measurement": "GI50", "setting": "SF-268", "value": 6, "unit": "µM"}, {"measurement": "GI50", "setting": "ACHN", "value": 0.55, "unit": "µM"}, {"measurement": "GI50", "setting": "MCF-7/ADR", "value": 1.5, "unit": "µM"}, {"measurement": "GI50", "setting": "OVCAR-8", "value": 4.5, "unit": "µM"}, {"measurement": "GI50", "setting": "DU-145", "value": 0.35, "unit": "µM"}, {"measurement": "GI50", "setting": "UACC-62", "value": 40, "unit": "µM"}, {"measurement": "GI50", "setting": "HOP-62", "value": 6, "unit": "µM"}]}
{"compound": "CC[C@@]1(O)C(=O)OCc2c1cc1n(c2=O)C(OCC(F)(F)F)c2cc3ccccc3nc2-1", "note": "(stereo partly drawn) [Example 25, 5-trifluoroethoxycamptothecin]", "values": [{"measurement": "IC (TGI)", "setting": "MOLT 4", "value": 3, "unit": "µM"}, {"measurement": "IC (TGI)", "setting": "SF 295", "value": 2.15, "unit": "µM"}, {"measurement": "IC (TGI)", "setting": "HT 29", "value": 7.9, "unit": "µM"}, {"measurement": "IC (TGI)", "setting": "MCF 7", "value": 9.2, "unit": "µM"}, {"measurement": "mean GI50", "setting": "[2]", "value": 1.82, "unit": "µM"}, {"measurement": "IC (TGI)", "setting": "U 251", "value": 3.57, "unit": "µM"}]}
